Test results reported in patent USRE48461E1, “Modulation of androgen receptor expression” (Ionis Pharmaceuticals, Inc., priority 2012, dated 2021).
Oligonucleotides are written 5' to 3', each unit as a sugar letter and its base; * is a phosphorothioate linkage, no mark a phosphodiester; rarer units and linkages stand in square brackets, end groups in braces. Plain capitals give the bases only. e = 2'-O-(2-methoxyethyl) (MOE); k = constrained ethyl (cEt); [5mC] = 5-methylcytosine; d = 2'-deoxy (DNA)

How the values were obtained:
AR mRNA [1] = assay: AR mRNA in liver, heart, skeletal muscle, kidney, prostate of cynomolgus monkeys; assay type: in vivo; conditions: cynomolgus monkey, 40 mg/kg subcutaneously; for Percent Inhibition of AR mRNA relative to the PBS control, Heart: weeks 1 to 6, Heart; for Percent Inhibition of AR mRNA relative to the PBS control, Kidney: weeks 1 to 6, Kidney; for Percent Inhibition of AR mRNA relative to the PBS control, Liver: weeks 1 to 6, Liver; for Percent Inhibition of AR mRNA relative to the PBS control, Skeletal Muscle: weeks 1 to 6, Skeletal Muscle
Description: Cynomolgus monkeys were treated with ISIS antisense oligonucleotides selected from studies described above. Antisense oligonucleotide efficacy and tolerability were evaluated. The human antisense oligonucleotides tested are cross-reactive with the rhesus genomic sequence (GENBANK Accession No. NW_001218131.1 truncated from nucleotides 134001 to 308000 and designated herein as SEQ ID NO: 189). The target start site and target region of each oligonucleotide to SEQ ID NO: 189, as well as the details of their chemistry and sequence, is presented in Table 133.
RNA was extracted from liver, heart, skeletal muscle, kidney, and prostate tissues for real-time PCR analysis of AR using primer probe set RTS3559. The results were normalized to RIBOGREEN®. Results are presented as percent inhibition of AR mRNA, relative to PBS control.

AR mRNA [2] = assay: AR mRNA in LnCaP cells by free uptake (hAR_LTS00943); assay type: cell-based, human; conditions: 24 hrs
Description: Cells were plated at a concentration of 4,000 cells/well in 96-well plates. ISIS oligonucleotides, specified in Table 68, were added individually at 0.02 μM, 0.10 μM, 0.50 μM, 2.50 μM, or 10.00 μM. After an incubation period of 24 hrs, mRNA levels were measured using primer probe set hAR_LTS00943.

AR mRNA [3] = assay: Antisense inhibition of human AR in HuVEC cells, single concentration (electroporation, qRT-PCR RTS3559); assay type: cell-based
In short: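 AR mRNA levels were measured with human primer-probe set RTS3559 and adjusted for total RNA (RIBOGREEN). Cells were HuVEC, with each antisense oligonucleotide delivered by electroporation at one concentration.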

AR mRNA [4] = assay: Dose-dependent antisense inhibition of human AR in HuVEC cells (electroporation, qRT-PCR RTS3559, IC50); assay type: cell-based; conditions: HuVEC
In short: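 HuVEC cells dosed with antisense oligonucleotides by electroporation and treated approximately 16 hours. AR mRNA quantified by real-time qPCR with primer probe set RTS3559 and normalised to total RNA by RIBOGREEN; IC50 from dose-response.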

AR mRNA [5] = assay: AR mRNA levels in LMR20 cells (with/without DHT or R1881); assay type: cell-based, human; conditions: LMR20 cells; for AR mRNA levels (% baseline value) after treatment with DHT: DHT 10 nM 72 hrs; for AR mRNA levels (% baseline value) after treatment with R1881: R1881 10 nM 72 hrs; for AR mRNA levels (% baseline value) of cells without AR agonist treatment: no AR agonist
Description: (§1) LMR20 cells were plated at 1,500 cells per well in phenol red-free medium with CSS.

[6] = tested on: prostate-specific antigen (PSA) mRNA; assay: PSA mRNA levels in LMR20 cells; assay type: cell-based, human; conditions: LMR20 cells; for PSA mRNA levels (% baseline value) after treatment with DHT: DHT 10 nM 72 hrs; for PSA mRNA levels (% baseline value) after treatment with R1881: R1881 10 nM 72 hrs; for PSA mRNA levels (% baseline value) of cells without AR agonist treatment: no AR agonist
Description: LMR20 cells were plated at 1,500 cells per well in phenol red-free medium with CSS. […] Results are presented in Tables 43-45 as mRNA levels expressed as a percentage of the baseline values. mRNA levels may be lowered or increased after treatment.

TMPRSS2 mRNA = TMPRSS2 mRNA levels in LMR20 cells; assay type: cell-based, human; conditions: LMR20 cells; for TMPRSS2 mRNA levels (% baseline value) after treatment with DHT: DHT 10 nM 72 hrs; for TMPRSS2 mRNA levels (% baseline value) after treatment with R1881: R1881 10 nM 72 hrs; for TMPRSS2 mRNA levels (% baseline value) of cells without AR agonist treatment: no AR agonist
Description: as §1

584163 (kG*kA*kA*d[5mC]*dA*dT*dT*dA*dT*dT*dA*dG*dG*k[5mC]*kT*kA) [compound 584163]
Percent Inhibition of AR mRNA relative to the PBS control, Heart (AR mRNA [1]): 53% | Percent Inhibition of AR mRNA relative to the PBS control, Kidney (AR mRNA [1]): 90% | Percent Inhibition of AR mRNA relative to the PBS control, Liver (AR mRNA [1]): 98% | Percent Inhibition of AR mRNA relative to the PBS control, Prostate (AR mRNA [1]; weeks 1 to 6, Prostate): 58% | Percent Inhibition of AR mRNA relative to the PBS control, Skeletal Muscle (AR mRNA [1]): 73% | Percent inhibition of AR mRNA (AR mRNA [2]; 0.02 μM): 0% | Percent inhibition of AR mRNA (AR mRNA [2]; 0.1 μM): 0% | Percent inhibition of AR mRNA (AR mRNA [2]; 0.5 μM): 19% | Percent inhibition of AR mRNA (AR mRNA [2]; 10 μM): 70% | % inhibition (AR mRNA [3]; Table 24, 1,000 nM oligonucleotide, electroporation, approximately 24 hours, relative to untreated control): 81% | percent inhibition of AR, 46.9 nM (AR mRNA [4]; Table 35, 46.9 nM, electroporation, approximately 16 hours): 19% | percent inhibition of AR, 187.5 nM (AR mRNA [4]; Table 35, 187.5 nM, electroporation, approximately 16 hours): 37% | percent inhibition of AR, 750.0 nM (AR mRNA [4]; Table 35, 750.0 nM, electroporation, approximately 16 hours): 74% | percent inhibition of AR, 3000.0 nM (AR mRNA [4]; Table 35, 3000.0 nM, electroporation, approximately 16 hours): 90% | IC50 (AR mRNA [4]; Table 35, electroporation, approximately 16 hours): 250 nM

579671 (antisense eT*kT*kG*eA*kT*kT*dT*dA*dA*dT*dG*dG*dT*kT*kG*k[5mC]) [compound 579671]
Percent Inhibition of AR mRNA relative to the PBS control, Heart (AR mRNA [1]): 24% | Percent Inhibition of AR mRNA relative to the PBS control, Kidney (AR mRNA [1]): 53% | Percent Inhibition of AR mRNA relative to the PBS control, Liver (AR mRNA [1]): 33% | Percent Inhibition of AR mRNA relative to the PBS control, Skeletal Muscle (AR mRNA [1]): 31% | Percent inhibition of AR mRNA (AR mRNA [2]; 0.02 μM): 15% | Percent inhibition of AR mRNA (AR mRNA [2]; 0.1 μM): 0% | Percent inhibition of AR mRNA (AR mRNA [2]; 0.5 μM): 19% | Percent inhibition of AR mRNA (AR mRNA [2]; 10 μM): 71% | percent inhibition of AR (AR mRNA [4]; 62.5 nM, ~16 h, Table 11): 6% | percent inhibition of AR (AR mRNA [4]; 125.0 nM, ~16 h, Table 11): 40% | percent inhibition of AR (AR mRNA [4]; 500.0 nM, ~16 h, Table 11): 57% | percent inhibition of AR (AR mRNA [4]; 1000.0 nM, ~16 h, Table 11): 77% | IC50 (AR mRNA [4]; ~16 h, Table 11): 288 nM

569236 (antisense eT*kG*kA*kT*dT*dT*dA*dA*dT*dG*dG*kT*kT*kG*e[5mC]*eA) [compound 569236]
Percent inhibition of AR mRNA (AR mRNA [2]; 0.02 μM): 3% | Percent inhibition of AR mRNA (AR mRNA [2]; 0.1 μM): 2% | Percent inhibition of AR mRNA (AR mRNA [2]; 0.5 μM): 21% | Percent inhibition of AR mRNA (AR mRNA [2]; 10 μM): 70% | AR mRNA levels (% baseline value) after treatment with DHT (AR mRNA [5]; ASO 0.04 μM): 94 % baseline value | AR mRNA levels (% baseline value) after treatment with DHT (AR mRNA [5]; ASO 0.20 μM): 77 % baseline value | AR mRNA levels (% baseline value) after treatment with DHT (AR mRNA [5]; ASO 1.0 μM): 44 % baseline value | AR mRNA levels (% baseline value) after treatment with DHT (AR mRNA [5]; ASO 5.0 μM): 34 % baseline value | AR mRNA levels (% baseline value) after treatment with R1881 (AR mRNA [5]; ASO 0.04 μM): 89 % baseline value | AR mRNA levels (% baseline value) after treatment with R1881 (AR mRNA [5]; ASO 0.20 μM): 80 % baseline value | AR mRNA levels (% baseline value) after treatment with R1881 (AR mRNA [5]; ASO 1.0 μM): 44 % baseline value | AR mRNA levels (% baseline value) after treatment with R1881 (AR mRNA [5]; ASO 5.0 μM): 37 % baseline value | AR mRNA levels (% baseline value) of cells without AR agonist treatment (AR mRNA [5]; ASO 0.04 μM): 104 % baseline value | AR mRNA levels (% baseline value) of cells without AR agonist treatment (AR mRNA [5]; ASO 0.20 μM): 87 % baseline value | AR mRNA levels (% baseline value) of cells without AR agonist treatment (AR mRNA [5]; ASO 1.0 μM): 42 % baseline value | AR mRNA levels (% baseline value) of cells without AR agonist treatment (AR mRNA [5]; ASO 5.0 μM): 27 % baseline value | % inhibition (AR mRNA [3]; 250 nM ASO, ~24 h, Table 7): 66% | PSA mRNA levels (% baseline value) after treatment with DHT ([6]; ASO 0.04 μM): 108 % baseline value | PSA mRNA levels (% baseline value) after treatment with DHT ([6]; ASO 0.20 μM): 79 % baseline value | PSA mRNA levels (% baseline value) after treatment with DHT ([6]; ASO 1.0 μM): 46 % baseline value | PSA mRNA levels (% baseline value) after treatment with DHT ([6]; ASO 5.0 μM): 46 % baseline value | PSA mRNA levels (% baseline value) after treatment with R1881 ([6]; ASO 0.04 μM): 90 % baseline value | PSA mRNA levels (% baseline value) after treatment with R1881 ([6]; ASO 0.20 μM): 90 % baseline value | PSA mRNA levels (% baseline value) after treatment with R1881 ([6]; ASO 1.0 μM): 57 % baseline value | PSA mRNA levels (% baseline value) after treatment with R1881 ([6]; ASO 5.0 μM): 41 % baseline value | PSA mRNA levels (% baseline value) of cells without AR agonist treatment ([6]; ASO 0.04 μM): 122 % baseline value | PSA mRNA levels (% baseline value) of cells without AR agonist treatment ([6]; ASO 0.20 μM): 90 % baseline value | PSA mRNA levels (% baseline value) of cells without AR agonist treatment ([6]; ASO 1.0 μM): 78 % baseline value | PSA mRNA levels (% baseline value) of cells without AR agonist treatment ([6]; ASO 5.0 μM): 73 % baseline value | TMPRSS2 mRNA levels (% baseline value) after treatment with DHT (TMPRSS2 mRNA; ASO 0.04 μM): 113 % baseline value | TMPRSS2 mRNA levels (% baseline value) after treatment with DHT (TMPRSS2 mRNA; ASO 0.20 μM): 123 % baseline value | TMPRSS2 mRNA levels (% baseline value) after treatment with DHT (TMPRSS2 mRNA; ASO 1.0 μM): 111 % baseline value | TMPRSS2 mRNA levels (% baseline value) after treatment with DHT (TMPRSS2 mRNA; ASO 5.0 μM): 110 % baseline value | TMPRSS2 mRNA levels (% baseline value) after treatment with R1881 (TMPRSS2 mRNA; ASO 0.04 μM): 126 % baseline value | TMPRSS2 mRNA levels (% baseline value) after treatment with R1881 (TMPRSS2 mRNA; ASO 0.20 μM): 131 % baseline value | TMPRSS2 mRNA levels (% baseline value) after treatment with R1881 (TMPRSS2 mRNA; ASO 1.0 μM): 98 % baseline value | TMPRSS2 mRNA levels (% baseline value) after treatment with R1881 (TMPRSS2 mRNA; ASO 5.0 μM): 95 % baseline value | TMPRSS2 mRNA levels (% baseline value) of cells without AR agonist treatment (TMPRSS2 mRNA; ASO 0.04 μM): 96 % baseline value | TMPRSS2 mRNA levels (% baseline value) of cells without AR agonist treatment (TMPRSS2 mRNA; ASO 0.20 μM): 81 % baseline value | TMPRSS2 mRNA levels (% baseline value) of cells without AR agonist treatment (TMPRSS2 mRNA; ASO 1.0 μM): 59 % baseline value | TMPRSS2 mRNA levels (% baseline value) of cells without AR agonist treatment (TMPRSS2 mRNA; ASO 5.0 μM): 48 % baseline value | percent inhibition of AR (AR mRNA [4]; 31.25 nM, ~16 h, Table 8): 17% | percent inhibition of AR (AR mRNA [4]; 62.5 nM, ~16 h, Table 8): 39% | percent inhibition of AR (AR mRNA [4]; 62.5 nM, ~16 h, Table 10): 4% | percent inhibition of AR (AR mRNA [4]; 125.0 nM, ~16 h, Table 8): 54% | percent inhibition of AR (AR mRNA [4]; 125.0 nM, ~16 h, Table 10): 35% | percent inhibition of AR (AR mRNA [4]; 500.0 nM, ~16 h, Table 8): 84% | percent inhibition of AR (AR mRNA [4]; 500.0 nM, ~16 h, Table 10): 68% | percent inhibition of AR (AR mRNA [4]; 1000.0 nM, ~16 h, Table 8): 92% | percent inhibition of AR (AR mRNA [4]; 1000.0 nM, ~16 h, Table 10): 88% | IC50 (AR mRNA [4]; ~16 h, Table 8): 110 nM | IC50 (AR mRNA [4]; ~16 h, Table 10): 252 nM
